Assays:
Assay in all cases: PathHunter β-Arrestin orphan GPCR panel
Type in all cases: cell-based
Conditions in all cases: agonist mode, 0.001 µM
ADMR = target: T1, ADMR (Homo sapiens, UniProt O15218)
T1 construct: purchased DiscoveRx (PathHunter β-Arrestin orphan GPCR panel)
Description: (§1) For screening orphan GPCRs as possible targets for PGE2-G, the PathHunter® β-Arrestin assay (DiscoveRx Co., USA) was used. It monitors the activation of a GPCR by utilizing an enzyme fragment complementation assay with β-galactosidase as the functional reporter. Briefly, the enzyme is split into two complementary portions expressed as fusion proteins in the cell. The enzyme acceptor is fused to β2-arrestin, and the ProLink donor peptide is fused to the GPCR of interest. Upon GPCR stimulation, β2-arrestin is recruited to the receptor, bringing the two fragments of β-galactosidase together. This generates an active enzyme that can convert a chemiluminescent substrate, generating a signal detectable on a standard microplate reader (see manufacturer’s instructions). In total, 78 GPCRs, previously considered orphan and individually transfected into cells, were screened by DiscoveRx (Supplementary Table S1). The percentage activity given in the results is calculated using the following formula: % activity = 100% × (mean RLU of test sample - mean RLU of vehicle control)/mean RLU of vehicle control).

BAI1 = target: T2, BAI1 (Homo sapiens, UniProt O14514)
T2 construct: purchased DiscoveRx (PathHunter β-Arrestin orphan GPCR panel)
Description: as §1

BAI2 = target: T3, BAI2 (Homo sapiens, UniProt O60241)
T3 construct: purchased DiscoveRx (PathHunter β-Arrestin orphan GPCR panel)
T3 sequence (O60241 33-1585): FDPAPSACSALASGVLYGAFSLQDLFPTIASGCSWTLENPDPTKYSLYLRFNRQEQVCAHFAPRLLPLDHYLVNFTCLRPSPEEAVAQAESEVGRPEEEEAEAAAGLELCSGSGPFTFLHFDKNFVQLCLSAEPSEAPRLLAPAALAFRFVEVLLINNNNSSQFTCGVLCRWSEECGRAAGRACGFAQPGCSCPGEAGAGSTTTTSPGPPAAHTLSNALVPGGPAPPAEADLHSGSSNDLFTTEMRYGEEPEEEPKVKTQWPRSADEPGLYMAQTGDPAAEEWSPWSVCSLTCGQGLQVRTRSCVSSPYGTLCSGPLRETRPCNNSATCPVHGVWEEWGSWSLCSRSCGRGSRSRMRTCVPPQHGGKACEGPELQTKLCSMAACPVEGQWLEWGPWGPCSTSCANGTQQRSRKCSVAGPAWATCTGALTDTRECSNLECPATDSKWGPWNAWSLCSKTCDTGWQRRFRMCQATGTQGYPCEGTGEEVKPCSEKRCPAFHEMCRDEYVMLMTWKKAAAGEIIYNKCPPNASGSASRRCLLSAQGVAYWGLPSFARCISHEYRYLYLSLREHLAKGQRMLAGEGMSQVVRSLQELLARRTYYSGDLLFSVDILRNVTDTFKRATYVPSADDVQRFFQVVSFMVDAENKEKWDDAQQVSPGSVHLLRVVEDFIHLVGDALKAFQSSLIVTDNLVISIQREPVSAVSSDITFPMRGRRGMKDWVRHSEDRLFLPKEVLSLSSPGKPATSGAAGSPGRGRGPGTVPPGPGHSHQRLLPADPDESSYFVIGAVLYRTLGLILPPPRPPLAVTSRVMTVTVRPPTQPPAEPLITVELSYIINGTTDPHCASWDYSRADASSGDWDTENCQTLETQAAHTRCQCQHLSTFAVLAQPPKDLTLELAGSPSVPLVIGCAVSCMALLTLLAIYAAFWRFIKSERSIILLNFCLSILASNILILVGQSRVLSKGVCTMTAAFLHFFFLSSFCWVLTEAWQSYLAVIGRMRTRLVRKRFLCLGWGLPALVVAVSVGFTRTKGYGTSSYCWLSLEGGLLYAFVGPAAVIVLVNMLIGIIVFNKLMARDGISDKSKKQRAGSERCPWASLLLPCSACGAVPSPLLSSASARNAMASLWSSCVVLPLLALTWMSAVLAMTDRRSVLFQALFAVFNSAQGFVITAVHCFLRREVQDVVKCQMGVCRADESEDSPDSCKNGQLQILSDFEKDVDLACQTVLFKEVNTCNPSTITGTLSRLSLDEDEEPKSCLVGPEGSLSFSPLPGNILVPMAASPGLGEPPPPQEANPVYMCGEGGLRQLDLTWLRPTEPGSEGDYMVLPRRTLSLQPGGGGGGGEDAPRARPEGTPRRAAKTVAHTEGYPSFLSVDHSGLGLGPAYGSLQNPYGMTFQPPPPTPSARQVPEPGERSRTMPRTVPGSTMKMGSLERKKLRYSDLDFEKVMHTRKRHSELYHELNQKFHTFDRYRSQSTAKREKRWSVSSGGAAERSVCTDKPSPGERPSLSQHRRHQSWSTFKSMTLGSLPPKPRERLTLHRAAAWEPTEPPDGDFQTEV
Description: as §1

BAI3 = target: T4, BAI3 (Homo sapiens, UniProt O60242)
T4 construct: purchased DiscoveRx (PathHunter β-Arrestin orphan GPCR panel)
Description: as §1

CCRL2 = target: T5, CCRL2 (Homo sapiens, UniProt O00421)
T5 construct: purchased DiscoveRx (PathHunter β-Arrestin orphan GPCR panel)
Description: as §1

CMKLR2 = target: T6, CMKLR2 (Homo sapiens, UniProt P46091)
T6 construct: purchased DiscoveRx (PathHunter β-Arrestin orphan GPCR panel)
T6 sequence (P46091 whole entry): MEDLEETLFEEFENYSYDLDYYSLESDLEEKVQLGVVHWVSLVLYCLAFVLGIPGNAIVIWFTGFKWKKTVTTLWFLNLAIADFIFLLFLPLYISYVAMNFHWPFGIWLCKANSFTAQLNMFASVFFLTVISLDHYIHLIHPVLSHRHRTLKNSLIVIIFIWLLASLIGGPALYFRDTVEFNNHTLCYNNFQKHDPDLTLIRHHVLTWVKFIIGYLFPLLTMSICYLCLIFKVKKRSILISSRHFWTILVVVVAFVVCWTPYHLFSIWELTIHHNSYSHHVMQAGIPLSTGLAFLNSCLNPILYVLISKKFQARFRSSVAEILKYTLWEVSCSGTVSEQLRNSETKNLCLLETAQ
Description: as §1

DARC = target: T7, DARC (Homo sapiens, UniProt Q16570)
T7 construct: purchased DiscoveRx (PathHunter β-Arrestin orphan GPCR panel)
Description: as §1

EBI2 = target: T8, EBI2 (Homo sapiens, UniProt P32249)
T8 construct: purchased DiscoveRx (PathHunter β-Arrestin orphan GPCR panel)
Description: as §1

GHSR1B = target: T9, GHSR1B (Homo sapiens, UniProt Q92847)
T9 construct: purchased DiscoveRx (PathHunter β-Arrestin orphan GPCR panel)
Description: as §1

GPR101 = target: T10, GPR101 (Homo sapiens, UniProt Q96P66)
T10 construct: purchased DiscoveRx (PathHunter β-Arrestin orphan GPCR panel)
Description: as §1

GPR103 = target: T11, GPR103 (Homo sapiens, UniProt Q96P65)
T11 construct: purchased DiscoveRx (PathHunter β-Arrestin orphan GPCR panel)
Description: as §1

GPR107 = target: T12, GPR107 (Homo sapiens, UniProt Q5VW38)
T12 construct: purchased DiscoveRx (PathHunter β-Arrestin orphan GPCR panel)
Description: as §1

GPR12 = target: T13, GPR12 (Homo sapiens, UniProt P47775)
T13 construct: purchased DiscoveRx (PathHunter β-Arrestin orphan GPCR panel)
Description: as §1

GPR123 = target: T14, GPR123 (Homo sapiens, UniProt Q86SQ6)
T14 construct: purchased DiscoveRx (PathHunter β-Arrestin orphan GPCR panel)
Description: as §1

GPR132 = target: T15, GPR132 (Homo sapiens, UniProt Q9UNW8)
T15 construct: purchased DiscoveRx (PathHunter β-Arrestin orphan GPCR panel)
Description: as §1

GPR135 = target: T16, GPR135 (Homo sapiens, UniProt Q8IZ08)
T16 construct: purchased DiscoveRx (PathHunter β-Arrestin orphan GPCR panel)
Description: as §1

GPR139 = target: T17, GPR139 (Homo sapiens, UniProt Q6DWJ6)
T17 construct: purchased DiscoveRx (PathHunter β-Arrestin orphan GPCR panel)
Description: as §1

GPR141 = target: T18, GPR141 (Homo sapiens, UniProt Q7Z602)
T18 construct: purchased DiscoveRx (PathHunter β-Arrestin orphan GPCR panel)
Description: as §1

GPR142 = target: T19, GPR142 (Homo sapiens, UniProt Q7Z601)
T19 construct: purchased DiscoveRx (PathHunter β-Arrestin orphan GPCR panel)
Description: as §1

GPR143 = target: T20, GPR143 (Homo sapiens, UniProt P51810)
T20 construct: purchased DiscoveRx (PathHunter β-Arrestin orphan GPCR panel)
Description: as §1

GPR146 = target: T21, GPR146 (Homo sapiens, UniProt Q96CH1)
T21 construct: purchased DiscoveRx (PathHunter β-Arrestin orphan GPCR panel)
Description: as §1

GPR148 = target: T22, GPR148 (Homo sapiens, UniProt Q8TDV2)
T22 construct: purchased DiscoveRx (PathHunter β-Arrestin orphan GPCR panel)
Description: as §1

GPR149 = target: T23, GPR149 (Homo sapiens, UniProt Q86SP6)
T23 construct: purchased DiscoveRx (PathHunter β-Arrestin orphan GPCR panel)
Description: as §1

GPR15 = target: T24, GPR15 (Homo sapiens, UniProt P49685)
T24 construct: purchased DiscoveRx (PathHunter β-Arrestin orphan GPCR panel)
Description: as §1

GPR150 = target: T25, GPR150 (Homo sapiens, UniProt Q8NGU9)
T25 construct: purchased DiscoveRx (PathHunter β-Arrestin orphan GPCR panel)
Description: as §1

GPR151 = target: T26, GPR151 (Homo sapiens, UniProt Q8TDV0)
T26 construct: purchased DiscoveRx (PathHunter β-Arrestin orphan GPCR panel)
T26 sequence (Q8TDV0 whole entry): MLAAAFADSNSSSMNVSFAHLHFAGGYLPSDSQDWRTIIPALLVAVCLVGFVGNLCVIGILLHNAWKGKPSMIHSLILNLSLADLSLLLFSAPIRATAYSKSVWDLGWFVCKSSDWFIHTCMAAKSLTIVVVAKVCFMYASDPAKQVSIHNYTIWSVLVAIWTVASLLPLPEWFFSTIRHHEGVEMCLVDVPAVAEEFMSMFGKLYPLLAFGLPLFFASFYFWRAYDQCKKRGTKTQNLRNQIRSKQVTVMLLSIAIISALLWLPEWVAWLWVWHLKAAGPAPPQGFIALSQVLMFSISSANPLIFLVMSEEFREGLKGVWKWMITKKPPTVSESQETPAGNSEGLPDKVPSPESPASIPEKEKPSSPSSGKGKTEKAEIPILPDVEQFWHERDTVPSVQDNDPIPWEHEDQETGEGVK
Description: as §1

GPR152 = target: T27, GPR152 (Homo sapiens, UniProt Q8TDT2)
T27 construct: purchased DiscoveRx (PathHunter β-Arrestin orphan GPCR panel)
Description: as §1

GPR157 = target: T28, GPR157 (Homo sapiens, UniProt Q5UAW9)
T28 construct: purchased DiscoveRx (PathHunter β-Arrestin orphan GPCR panel)
Description: as §1

GPR161 = target: T29, GPR161 (Homo sapiens, UniProt Q8N6U8)
T29 construct: purchased DiscoveRx (PathHunter β-Arrestin orphan GPCR panel)
Description: as §1

GPR162 = target: T30, GPR162 (Homo sapiens, UniProt Q16538)
T30 construct: purchased DiscoveRx (PathHunter β-Arrestin orphan GPCR panel)
Description: as §1

GPR17 = target: T31, GPR17 (Homo sapiens, UniProt Q13304)
T31 construct: purchased DiscoveRx (PathHunter β-Arrestin orphan GPCR panel)
Description: as §1

GPR171 = target: T32, GPR171 (Homo sapiens, UniProt O14626)
T32 construct: purchased DiscoveRx (PathHunter β-Arrestin orphan GPCR panel)
Description: as §1

GPR173 = target: T33, GPR173 (Homo sapiens, UniProt Q9NS66)
T33 construct: purchased DiscoveRx (PathHunter β-Arrestin orphan GPCR panel)
T33 sequence (Q9NS66 whole entry): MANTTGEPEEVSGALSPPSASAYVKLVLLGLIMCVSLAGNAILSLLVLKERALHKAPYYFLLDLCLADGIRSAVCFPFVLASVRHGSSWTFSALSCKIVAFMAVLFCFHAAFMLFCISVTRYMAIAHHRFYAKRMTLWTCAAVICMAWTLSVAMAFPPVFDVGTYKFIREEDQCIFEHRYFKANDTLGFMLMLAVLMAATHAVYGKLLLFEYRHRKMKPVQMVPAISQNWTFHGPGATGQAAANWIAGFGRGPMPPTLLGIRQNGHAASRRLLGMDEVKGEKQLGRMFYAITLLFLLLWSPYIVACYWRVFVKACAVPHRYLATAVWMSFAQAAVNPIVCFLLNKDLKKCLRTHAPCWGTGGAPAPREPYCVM
Description: as §1

GPR176 = target: T34, GPR176 (Homo sapiens, UniProt Q14439)
T34 construct: purchased DiscoveRx (PathHunter β-Arrestin orphan GPCR panel)
T34 sequence (Q14439 whole entry): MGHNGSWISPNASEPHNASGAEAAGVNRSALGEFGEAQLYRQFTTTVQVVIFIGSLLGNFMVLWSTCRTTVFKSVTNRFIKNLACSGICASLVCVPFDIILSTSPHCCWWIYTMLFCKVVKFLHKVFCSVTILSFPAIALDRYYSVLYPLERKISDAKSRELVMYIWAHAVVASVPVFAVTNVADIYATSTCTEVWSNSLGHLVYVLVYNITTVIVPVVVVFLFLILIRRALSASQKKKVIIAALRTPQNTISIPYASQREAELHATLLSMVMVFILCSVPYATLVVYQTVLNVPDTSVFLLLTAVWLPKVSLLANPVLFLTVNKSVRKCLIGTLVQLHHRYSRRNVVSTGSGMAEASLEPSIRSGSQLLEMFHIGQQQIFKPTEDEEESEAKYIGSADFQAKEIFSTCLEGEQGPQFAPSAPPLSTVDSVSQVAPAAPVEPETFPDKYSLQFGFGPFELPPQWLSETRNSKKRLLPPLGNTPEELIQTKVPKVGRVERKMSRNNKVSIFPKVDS
Description: as §1

GPR18 = target: T35, GPR18 (Homo sapiens, UniProt Q14330)
T35 construct: purchased DiscoveRx (PathHunter β-Arrestin orphan GPCR panel)
Description: as §1

GPR182 = target: T36, GPR182 (Homo sapiens, UniProt O15218)
T36 construct: purchased DiscoveRx (PathHunter β-Arrestin orphan GPCR panel)
T36 sequence (O15218 whole entry): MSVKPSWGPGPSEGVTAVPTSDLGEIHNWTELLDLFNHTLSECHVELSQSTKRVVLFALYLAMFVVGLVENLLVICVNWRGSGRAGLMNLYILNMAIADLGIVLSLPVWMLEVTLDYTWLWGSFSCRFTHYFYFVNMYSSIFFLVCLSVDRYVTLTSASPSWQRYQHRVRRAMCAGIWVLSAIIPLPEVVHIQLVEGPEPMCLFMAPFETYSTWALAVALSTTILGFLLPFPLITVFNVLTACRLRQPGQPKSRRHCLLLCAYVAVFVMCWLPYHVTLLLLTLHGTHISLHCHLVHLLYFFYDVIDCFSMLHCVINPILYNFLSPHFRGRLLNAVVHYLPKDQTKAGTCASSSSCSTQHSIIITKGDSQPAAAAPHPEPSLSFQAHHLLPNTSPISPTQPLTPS
Description: as §1

GPR20 = target: T37, GPR20 (Homo sapiens, UniProt Q99678)
T37 construct: purchased DiscoveRx (PathHunter β-Arrestin orphan GPCR panel)
T37 sequence (Q99678 whole entry): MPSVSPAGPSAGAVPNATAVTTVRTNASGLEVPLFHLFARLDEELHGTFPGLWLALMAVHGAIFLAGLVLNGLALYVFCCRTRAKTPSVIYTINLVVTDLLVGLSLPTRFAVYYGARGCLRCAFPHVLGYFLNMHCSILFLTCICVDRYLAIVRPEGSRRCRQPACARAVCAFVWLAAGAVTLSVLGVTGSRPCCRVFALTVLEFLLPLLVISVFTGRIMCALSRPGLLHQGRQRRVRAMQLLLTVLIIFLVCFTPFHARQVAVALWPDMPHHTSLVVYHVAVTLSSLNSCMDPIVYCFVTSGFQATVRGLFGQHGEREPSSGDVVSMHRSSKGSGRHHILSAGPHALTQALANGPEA
Description: as §1

GPR23 = target: T38, GPR23 (Homo sapiens, UniProt Q99677)
T38 construct: purchased DiscoveRx (PathHunter β-Arrestin orphan GPCR panel)
Description: as §1

GPR25 = target: T39, GPR25 (Homo sapiens, UniProt O00155)
T39 construct: purchased DiscoveRx (PathHunter β-Arrestin orphan GPCR panel)
Description: as §1

GPR26 = target: T40, GPR26 (Homo sapiens, UniProt Q8NDV2)
T40 construct: purchased DiscoveRx (PathHunter β-Arrestin orphan GPCR panel)
Description: as §1

GPR27 = target: T41, GPR27 (Homo sapiens, UniProt Q9NS67)
T41 construct: purchased DiscoveRx (PathHunter β-Arrestin orphan GPCR panel)
Description: as §1

GPR3 = target: T42, GPR3 (Homo sapiens, UniProt P46089)
T42 construct: purchased DiscoveRx (PathHunter β-Arrestin orphan GPCR panel)
Description: as §1

GPR30 = target: T43, GPR30 (Homo sapiens, UniProt Q99527)
T43 construct: purchased DiscoveRx (PathHunter β-Arrestin orphan GPCR panel)
T43 sequence (Q99527 whole entry): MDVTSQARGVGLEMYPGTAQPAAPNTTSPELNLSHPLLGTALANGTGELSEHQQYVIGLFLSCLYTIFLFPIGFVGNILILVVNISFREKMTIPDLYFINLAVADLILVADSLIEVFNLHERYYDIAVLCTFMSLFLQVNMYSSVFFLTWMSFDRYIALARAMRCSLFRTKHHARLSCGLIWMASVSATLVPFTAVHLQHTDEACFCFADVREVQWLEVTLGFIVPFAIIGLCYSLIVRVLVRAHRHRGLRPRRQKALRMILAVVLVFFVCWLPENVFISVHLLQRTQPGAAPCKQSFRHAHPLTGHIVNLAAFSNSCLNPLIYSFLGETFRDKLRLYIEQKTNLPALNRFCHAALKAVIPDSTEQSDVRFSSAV
Description: as §1

GPR31 = target: T44, GPR31 (Homo sapiens, UniProt O00270)
T44 construct: purchased DiscoveRx (PathHunter β-Arrestin orphan GPCR panel)
T44 sequence (O00270 whole entry): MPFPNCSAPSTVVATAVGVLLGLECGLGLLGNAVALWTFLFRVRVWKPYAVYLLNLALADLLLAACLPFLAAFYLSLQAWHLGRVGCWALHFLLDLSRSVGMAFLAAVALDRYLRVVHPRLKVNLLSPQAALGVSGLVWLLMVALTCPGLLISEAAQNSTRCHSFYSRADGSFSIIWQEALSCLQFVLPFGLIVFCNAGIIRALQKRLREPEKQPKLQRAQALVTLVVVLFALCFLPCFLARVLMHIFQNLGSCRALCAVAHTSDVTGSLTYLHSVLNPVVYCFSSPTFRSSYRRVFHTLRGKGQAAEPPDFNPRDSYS
Description: as §1

GPR32 = target: T45, GPR32 (Homo sapiens, UniProt O75388)
T45 construct: purchased DiscoveRx (PathHunter β-Arrestin orphan GPCR panel)
Description: as §1

GPR37 = target: T46, GPR37 (Homo sapiens, UniProt O15354)
T46 construct: purchased DiscoveRx (PathHunter β-Arrestin orphan GPCR panel)
Description: as §1

GPR37L1 = target: T47, GPR37L1 (Homo sapiens, UniProt O60883)
T47 construct: purchased DiscoveRx (PathHunter β-Arrestin orphan GPCR panel)
Description: as §1

T1 sequence (O15218 whole entry): as the sequence (O15218 whole entry) above

SMILES: CCCCC[C@H](O)/C=C/[C@H]1[C@H](O)CC(=O)[C@@H]1C/C=C\CCCC(=O)NC(CO)CO [PGE2-SA]
- Mean RLU (ADMR): 514420 RLU
- Mean RLU (BAI1): 864280 RLU
- Mean RLU (BAI2): 15400 RLU
- Mean RLU (BAI3): 21960 RLU
- Mean RLU (CCRL2): 8400 RLU
- Mean RLU (CMKLR2): 17240 RLU
- Mean RLU (DARC): 105120 RLU
- Mean RLU (EBI2): 46540 RLU
- Mean RLU (GHSR1B): 2580 RLU
- Mean RLU (GPR101): 30940 RLU
- Mean RLU (GPR103): 56020 RLU
- Mean RLU (GPR107): 304860 RLU
- Mean RLU (GPR12): 680 RLU
- Mean RLU (GPR123): 1221720 RLU
- Mean RLU (GPR132): 620480 RLU
- Mean RLU (GPR135): 16680 RLU
- Mean RLU (GPR139): 307380 RLU
- Mean RLU (GPR141): 30420 RLU
- Mean RLU (GPR142): 2660 RLU
- Mean RLU (GPR143): 91680 RLU
- Mean RLU (GPR146): 15800 RLU
- Mean RLU (GPR148): 3640 RLU
- Mean RLU (GPR149): 29340 RLU
- Mean RLU (GPR15): 9440 RLU
- Mean RLU (GPR150): 31360 RLU
- Mean RLU (GPR151): 57420 RLU
- Mean RLU (GPR152): 178980 RLU
- Mean RLU (GPR157): 356620 RLU
- Mean RLU (GPR161): 20300 RLU
- Mean RLU (GPR162): 26360 RLU
- Mean RLU (GPR17): 805440 RLU
- Mean RLU (GPR171): 4880 RLU
- Mean RLU (GPR173): 62220 RLU
- Mean RLU (GPR176): 380580 RLU
- Mean RLU (GPR18): 520 RLU
- Mean RLU (GPR182): 899260 RLU
- Mean RLU (GPR20): 74500 RLU
- Mean RLU (GPR23): 990600 RLU
- Mean RLU (GPR25): 6140 RLU
- Mean RLU (GPR26): 2200 RLU
- Mean RLU (GPR27): 219760 RLU
- Mean RLU (GPR3): 1524920 RLU
- Mean RLU (GPR30): 8540 RLU
- Mean RLU (GPR31): 7680 RLU
- Mean RLU (GPR32): 129240 RLU
- Mean RLU (GPR37): 822100 RLU
- Mean RLU (GPR37L1): 36440 RLU

Source: article PMC5443783, “Prostaglandin E2 glyceryl ester is an endogenous agonist of the nucleotide receptor P2Y6” (Scientific Reports, 2017)
